Calls of active or inactive are those of the source.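 Rule for the calls: active = compounds giving half or more protection of infected cells from virus-caused growth loss, again on retest; inactive = the rest.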
Tested on: CEM cells HIV-1 protection, formazan growth assay
Assay: NCI AIDS Antiviral Assay
Details: for IC50: measured here: growth of uninfected CEM cells
In short: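 Soluble formazan readout of cell growth; CEM cells ± HIV-1; 5 drug concs. ≥50% protection → retest; ≥50% again = moderately active; reproducible 100% = confirmed active.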

| SMILES | EC50 | IC50 | outcome |
| --- | --- | --- | --- |
| C=C[C@@H]1c2ccccc2C=C[C@]1(CCC1(C)OCCO1)C1=NC(COC)[C@H](c2ccccc2)O1 (stereo partly drawn) | > 8.13 µM | > 8.13 µM |  |
| COC1CC(OC2C(C)OC(OC3C(C)OC(OC4C(C)OC(O[C@H]5CC[C@@]6(C)C(=CC[C@]7(O)[C@@H]6C[C@@H](O)[C@@]6(C)[C@]7(O)CC[C@@]6(O)C(C)=O)C5)CC4OC)CC3OC)CC2OC)OC(C)C1O (stereo partly drawn) | > 200 µM | > 200 µM |  |
| COC(=O)CC(CC(=O)C(=O)OC)C(=O)OC (stereo not drawn) | > 251 µM | > 251 µM |  |
| O=C1O[C@@H](c2ccccc2)C[C@H]1CN1CCOCC1 |  |  | inactive |
| CCOC(=O)Cn1c(C)nc2nn(Cc3ccccc3)cc2c1=O | > 200 µM | > 200 µM |  |
| CC1(C)N=C(N)N=C(N)N1c1cccc(N)c1.[Sn] |  |  | inactive |
| COCCCNC(=O)C1=C(C)NC(C)=C(C(=O)NCCCOC)C1 | > 200 µM | 53.7 µM |  |
| CCOP(=O)(OCC)/C(C#N)=C/c1cccn1N(C)C | > 257 µM | 245 µM |  |
| Cc1cccc(N(CCC#N)S(=O)(=O)c2ccccc2)c1 | > 200 µM | 110 µM |  |
| O=C(C(=NC12CC3CC(CC(C3)C1)C2)NNc1ccc([N+](=O)[O-])cc1[N+](=O)[O-])C(Br)C(=O)c1ccccc1 (stereo not drawn) | > 200 µM | 107 µM |  |
| N#CC(C#N)=C(C(C#N)C#N)C(C#N)C#N |  |  | inactive |
| N#C/C(=C\c1ccc(O)c(O)c1)C(=O)NCN1CCN(C(=O)/C(C#N)=C/c2ccc(O)c(O)c2)CC1 | > 200 µM | 19.1 µM |  |
| CC(=O)C(=Cc1cccc([N+](=O)[O-])c1)C(C)=O | > 155 µM | 20.4 µM |  |
| Cc1ccsc1/C=N/Nc1cc(C)c2cccc(C)c2n1 | > 200 µM | 138 µM |  |
| NS(=O)(=O)c1ccc(NNc2c3ccccc3nc3c(C(=O)Nc4ccc(S(=O)(=O)Nc5ncccn5)cc4)cccc23)cc1 | > 50.1 µM | 26.9 µM |  |
| Nc1ccc(/C=C/c2ccc3cccnc3c2)cc1 | 0.0631 µM | > 200 µM |  |
| CC(=Nc1ccc(Cl)c(Cl)c1)c1ccncc1 |  |  | inactive |
| CCOC(=O)C(=C/C=C/N[C@@H](Cc1c[nH]c2ccccc12)C(N)=O)C(=O)OCC | > 18.2 µM | > 18.2 µM |  |
| CCc1ccc(/C(C)=N/NC(N)=S)cc1 |  |  | inactive |
| OCc1ncccc1O | > 200 µM | > 200 µM |  |
| O=C(O)CSc1n[nH]c(-c2ccc(O)cc2)n1 | > 1000 µM | 977 µM |  |

| SMILES | EC50 | IC50 | outcome |
| --- | --- | --- | --- |
| CCOC(=O)C1(C/C=C\CBr)CCCCCCCCCCC1=O (stereo not drawn) | > 200 µM | 0.933 µM |  |
| Clc1ccc(CSc2ccc3nncc(SCc4ccc(Cl)cc4)c3c2)cc1 | > 60.3 µM | > 60.3 µM |  |
| c1ccc(-c2csc3c2-n2cccc2C3N2CCCC2)cc1 (stereo not drawn) | > 200 µM | 13.5 µM |  |
| CN(C)c1ccc(/C=C2\C=Cc3ccccc32)cc1F | > 200 µM | 120 µM |  |
| CC1CC/C(=C\c2ccc(Cl)cc2)C(=O)/C1=C\c1ccc(Cl)cc1 (stereo not drawn) | > 200 µM | 42.7 µM |  |
| O=C(O)/C(Cl)=C(\Cl)C(=O)Nc1ccc(Cl)c(Cl)c1Cl |  |  | inactive |
| Cc1ccc(NC(=O)/C(Cc2nc3ccc([N+](=O)[O-])cc3[nH]c2=O)=N\NC(=O)C[n+]2ccccc2)c(C)c1 | > 234 µM | 170 µM |  |
| O=C1CSC(c2cccc(Cl)c2)N1N1C(=O)CSC1c1cccc(Cl)c1 (stereo not drawn) | > 200 µM | 66.1 µM |  |
| O=C(/C=C/c1ccccc1O)c1ccccc1Cl | > 38.9 µM | > 38.9 µM |  |
| CC(C)(C)c1ccc(Oc2ccc3c(c2)-c2nc-3nc3[nH]c(nc4nc(nc5[nH]c(n2)c2ccc(Oc6ccc(C(C)(C)C)cc6C(C)(C)C)cc52)-c2cc(Oc5ccc(C(C)(C)C)cc5C(C)(C)C)ccc2-4)c2ccc(Oc4ccc(C(C)(C)C)cc4C(C)(C)C)cc32)c(C(C)(C)C)c1 | > 9.77 µM | > 9.77 µM |  |
| CCCCCCCCCCCCC1N=C(N)N2CCCC2=C1C(=O)OC (stereo not drawn) | > 200 µM | 4.9 µM |  |
| C(=C\CSc1ccccc1)/CSc1ccccc1 | > 13.8 µM | > 13.8 µM |  |
| NC(N)=NS(=O)(=O)c1ccc(NCc2c3ccccc3nc3ccccc23)cc1 | > 2 µM | 0.195 µM |  |
| COC(=O)C1=C(SC)SC2(C(=O)OC)C3C=C(C)C4C(N13)C42C(=O)OC (stereo not drawn) | > 3.63 µM | > 3.63 µM |  |
| N#Cc1c(Cl)c2ccccc2n2c1nc1ccccc12 | > 151 µM | 8.32 µM |  |
| CC(=O)OCC1OC(Nc2cc(=O)n(C)c(=O)[nH]2)C(OC(C)=O)C(OC(C)=O)C1OC(C)=O (stereo not drawn) |  |  | inactive |
| CC(C)CC12CC3CCC(CNC1=O)C32C (stereo not drawn) |  |  | inactive |
| CN(C)CCCCN1c2ccccc2Sc2ccc(N=[N+]=[N-])cc21 | > 200 µM | 3.24 µM |  |
| COC(=O)C1=C2CCC(=O)[C@@]2(C)C(OC(C)=O)C=CC1 (stereo partly drawn) |  |  | inactive |
| CC(O[Si](C)(C)C(C)(C)C)[C@H](NC(=O)OCC(Cl)(Cl)Cl)C(=O)O (stereo partly drawn) | > 617 µM | > 100 µM |  |
| COCc1cn(C2C=CC(CO)O2)c(=O)[nH]c1=O (stereo not drawn) | 17.4 µM | 123 µM |  |

| SMILES | EC50 | IC50 | outcome |
| --- | --- | --- | --- |
| C=C1CC(C)(COc2cc(=O)oc3ccccc23)OC1=O (stereo not drawn) | > 200 µM | 1.74 µM |  |
| O=S(=O)(O)c1ccc(Nc2ccnc3cc(Cl)ccc23)cc1 | > 200 µM | > 200 µM |  |
| CCCCCCCCCCCCCCCCN1CCCCCC1=O | > 77.6 µM | > 77.6 µM |  |
| CC1(C)CNC[C@@]2(C)OCCOCCOCCO[C@](C)(CNCC(C)(C)NC2=O)C(=O)N1 | > 200 µM | > 200 µM |  |
| COc1cccc2c1C1(O)C2CCCCCCCCCC12OCCCO2 (stereo not drawn) | > 91.2 µM | 69.2 µM |  |
| Cc1cc(=O)[nH]c(-n2[nH]c(C)c(CCO)c2=O)n1 | > 200 µM | > 200 µM |  |
| COC(=O)c1cccc2cccc(C(=O)Nc3ccc(Cl)cc3)c12 | > 11.2 µM | > 11.2 µM |  |
| O=C(Nc1ccc(Cl)cc1)OCC12COCN1COC2 | 204 µM | 257 µM |  |
| CC(=O)Nc1ccc(NS(=O)(=O)c2ccc3nc(C)n(NS(=O)(=O)c4ccc(NC(C)=O)cc4)c(=O)c3c2)cc1 | > 200 µM | > 200 µM |  |
| CSc1sc(=S)sc1C(=O)N(C)c1ccccc1 | > 200 µM | > 200 µM |  |
| CCc1c2[n-]c(c1C)/C=c1\[n-]/c(c(C)c1CC)=C\c1[n-]c(c(CCC(=O)O)c1C)/C=c1\[n-]/c(c(C)c1CCC(=O)O)=C\2.[Zn] | > 21.4 µM | 13.5 µM |  |
| COc1cc2nncc(SCc3ccccc3)c2cc1OC | > 85.1 µM | > 85.1 µM |  |
| CN(C)N1C(=C(C#N)C#N)C(c2ccccc2)CC1C#N (stereo not drawn) | > 200 µM | > 200 µM |  |
| Nc1ncnc2c1ncn2[C@@H]1C[C@@H]1CO | > 200 µM | > 200 µM |  |
| CCOC(=O)c1nc2cc(C(F)(F)F)ccc2nc1Nc1ccc(OC)cc1 | > 126 µM | > 126 µM |  |
| O=C(O)c1cocc1C(=O)O |  |  | inactive |
| C[C@H](N)C(=O)N[C@@H]1[C@H]2C(=C(O)C[C@@H](O)[C@@H]2O)C(=O)O[C@@H]1C |  |  | inactive |
| COC(=O)c1ccc(CSc2ccc(OC)cc2)cc1 |  |  | inactive |
| CC(C)COP(=O)(OCC(C)C)C(NS(=O)(=O)c1ccccc1)(C(F)(F)F)C(F)(F)F |  |  | inactive |
| CC(C)c1cc2c(cc1S(=O)(=O)O)[C@@]1(C)CCC[C@@](C)(C(=O)O)C1CC2 (stereo partly drawn) | > 200 µM | > 200 µM |  |
| CC(C)C1=C(Cc2ccccc2)C(=O)O/C1=C\c1cc(Cl)c(O)c(Cl)c1 | > 200 µM | 32.4 µM |  |

From PubChem BioAssay AID179 (DTP/NCI, 2004)
